Data published in patent US20260327211A1, “MODULATORS OF A POTASSIUM CHANNEL AND OF TRPV1 CHANNEL AND USES THEREOF” (Bsense Bio Therapeutics Ltd., priority 2023, published 2026).
pIC50: −log10 of the molar value. Entries after “also recorded” stand apart in the source; their conditions may differ.

How the values were obtained:
rat DRGs = test: NGF-treated rat DRG neuropathic model, capsaicin-induced tetanic burst; type: cell-based; conditions: NGF 100 ng/ml pretreated
Description: DRGs treated with NGF show tetanic action potential burst in response to CAP application, mimicking neuropathic like response. See, Background Art FIG. 8A. NGF enhances TRPV1 function using Calcium-dependent fluorescence, F, relative to maximal fluorescence, Fmax, as a function of time from a single HEK293 cell stably transfected with TrkA and transiently transfected with hTRPV1. Pulses of capsaicin (100 nM, applied as shown at top) elicited submaximal increases in [Ca]i. Exposure to NGF (100 ng/mL, see top) enhanced the capsaicin induced calcium increase. Arrows show responses used for calculation of sensitization ratio.

HepG2 cells = test: HepG2 toxicity, ATPlite; type: cell-based, human; conditions: up to limit of solubility
Description: Cell culture: HepG2 cell-line cells were cultured in EMEM (ATCC 30-2033) medium supplemented with 10% fetal bovine serum (Biological Industries) in a humidified 5% CO2 incubator at 37° C.
ATPlite™ 1step Kit: ATPlite™ 1step kit (PerkinElmer) was used in a 384-wells format to assess potential liver toxicity using HepG2 cells. This is an ATP detection system based on firefly luciferase luminescence for the quantitative evaluation of proliferation and cytotoxicity of cells. ATP is a marker for cell viability because it is present in all metabolically active cells and its concentration declines very rapidly when the cells undergo necrosis or apoptosis.
According to an optimization process done to achieve uniform and consistent screening condition of molecules, the following protocol was established: Cells were seeded in 384-well, black-walled, clear-bottomed, at a density of 4000 cells per well […] and incubated overnight in their normal growth medium. On day two (48 hours before viability measurement), the tested compounds and the positive control were applied to the wells according to the plate design. […] 48 hours later, reconstituted lyophilized substrate solution was added to each well and the sealed 384-well microplate was mixed for 2 minutes at 1100 rpm in an orbital microplate and plates were incubated for 10 minutes in the dark at room temperature. Right after, luminescence was measured in the Tecan plate reader. To estimate the LD50 and LD25 values the data was fitted to sigmoidal regression using Prism-GraphPad. […]

adrenergic α2A = molecular target: T1, adrenergic α2A (Homo sapiens, UniProt P08913); test: Functional selectivity panel, adrenergic α2A; type: biochemical
T1 construct: Eurofins DiscoverX, USA
Description: (§1) A broad panel of 78 recombinant targets was tested for pharmacologic activity in vitro through a variety of functional assays (Eurofins DiscoverX, USA), as part of the National Institute of Neurological Disorders and Stroke (NINDS) Preclinical Screening Platform for Pain (PSPP) program. The biological targets for the in vitro profiling have been selected based on avoiding opioid receptor stimulation and targets known to be associated with adverse events or targeted by drugs of abuse. […] For each test, a reference compound was evaluated at the target of interest as a positive control.

[1] = test system: Chronic Post-Ischemia Pain (CPIP) rats; test: Chronic Post-Ischemia Pain (CPIP) model, von Frey; type: in vivo, rat; conditions: 100 mg/kg oral, 6 hours post-dose
Description: All animal experiments were carried out according to the Guide for the Care and Use of Laboratory Animals (2011 edition) and approved by the Israel National Institutional Animal Care and Use Committee (IACUC). Young adult male SD rats (Envigo RMS, Israel), were used for in vivo efficacy: Spared Nerve Injury (SNI), Distal Tibial Injury (DTI) and Post-operative Pain (POP), 200-220 grams, Chronic Post-Ischemia Pain (CPIP) 275-325 grams, Monosodium iodoacetate-induced osteoarthritis (MIA-OA) 180-220 grams; for in vivo safety: 200-250 grams at study initiation. […] The health status of the animals used in this study was examined upon their arrival. Only animals in good health were acclimatized to laboratory conditions and were used in the studies. All studies were performed following at least five days of animal acclimation. During acclimation and throughout the entire study duration, animals were housed within a limited-access rodent facility and kept in groups with a maximum of 2-3 rats per polypropylene cage. The cages were fitted with solid bottoms and filled with sterile wood shavings as bedding material. […] Water was monitored periodically. […]
On study day 14, the animal's response to von Frey filaments was measured. […]

cannabinoid 1 receptor = molecular target: T2, cannabinoid 1 receptor (Homo sapiens, UniProt P21554); test: Functional selectivity panel, cannabinoid 1 receptor; type: biochemical
T2 construct: Eurofins DiscoverX, USA
Description: as §1

GABAA = test: Functional selectivity panel, GABAA; type: biochemical; conditions: up to 10 micromolar
Description: as §1

Bradykynin B1-2 = test: Functional screening panel, Bradykynin B1-2; type: biochemical; conditions: up to 10 micromolar
Description: as §1

98 targets = test: Functional screening panel, 98 targets
rats = test: Chronic 5-day BID exposure; type: in vivo, rat; conditions: up to 300 mg/kg BID, oral

T2 sequence (P21554 whole entry): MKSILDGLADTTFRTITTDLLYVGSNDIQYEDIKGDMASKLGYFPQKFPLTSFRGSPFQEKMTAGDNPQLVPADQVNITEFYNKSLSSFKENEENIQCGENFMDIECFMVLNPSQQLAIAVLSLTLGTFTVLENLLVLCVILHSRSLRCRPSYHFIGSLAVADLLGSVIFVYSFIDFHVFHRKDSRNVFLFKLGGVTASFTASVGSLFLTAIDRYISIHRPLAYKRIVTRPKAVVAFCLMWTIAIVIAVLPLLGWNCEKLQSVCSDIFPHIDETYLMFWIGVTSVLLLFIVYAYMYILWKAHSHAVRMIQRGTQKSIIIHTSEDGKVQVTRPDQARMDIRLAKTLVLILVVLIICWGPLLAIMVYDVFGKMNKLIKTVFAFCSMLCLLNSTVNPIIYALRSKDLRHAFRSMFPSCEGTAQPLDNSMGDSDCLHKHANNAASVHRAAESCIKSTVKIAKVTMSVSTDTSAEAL
T1 sequence (P08913 whole entry): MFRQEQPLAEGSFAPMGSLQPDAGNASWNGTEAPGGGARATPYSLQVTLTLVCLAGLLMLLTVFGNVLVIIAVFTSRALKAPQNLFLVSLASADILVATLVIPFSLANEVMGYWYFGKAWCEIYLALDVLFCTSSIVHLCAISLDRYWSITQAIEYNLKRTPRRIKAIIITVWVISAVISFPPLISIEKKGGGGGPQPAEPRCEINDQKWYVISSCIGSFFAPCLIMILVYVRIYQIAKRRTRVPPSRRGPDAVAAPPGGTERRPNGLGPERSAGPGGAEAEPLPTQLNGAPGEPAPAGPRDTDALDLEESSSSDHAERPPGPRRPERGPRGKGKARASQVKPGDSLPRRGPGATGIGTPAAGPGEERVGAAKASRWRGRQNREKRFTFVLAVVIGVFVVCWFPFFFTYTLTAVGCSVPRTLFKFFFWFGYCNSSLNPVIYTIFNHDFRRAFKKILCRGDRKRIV

For `Cc1cn(-c2ccc(F)c(CC(=O)NCC(C)(C)O)c2)c2c(Cl)cc(Cl)cc12` [Compound 421-6], the “Effect on capsaicin induced tetanic action potential burst” value (rat DRGs) was “alleviates the capsaicin induced tetanic action potential burst at levels below EC50; also recorded: reversible inhibition”.

`O=C(Cc1cncc(-n2cc(Cl)c3cc(Cl)cc(Cl)c32)c1)N[C@@H]1COC[C@H]1O` [Compound 661] was tested, and the “HepG2 toxicity” value (HepG2 cells) was “no evidence of toxicity up to the compound's limit of solubility”, the pIC50 (adrenergic α2A) was 5.22 and the “Reversal of mechanical PWT” value [1] was 27.6%. For the same compound, the pIC50 (cannabinoid 1 receptor) was 5.85.

`O=C(Cc1nccc(-n2cc(Cl)c3cc(Cl)cc(Cl)c32)n1)NC1COCC1O` (stereo not drawn) [Compound 760] was tested, and the “Effect on GABAA” value (GABAA) was “no effect”, the “Effect on Bradykynin B1-2” value (Bradykynin B1-2) was “no effect” and the “Off-target effect profile” value (98 targets) was “clean off-target effect profile”. The “Gross safety, 5-day BID” value (rats) was “did not raise any gross safety concerns”.
